In publication PMC9504289 (Pharmaceuticals, 2022):

System: mutant spike proteins including D614G, delta (B.1.617.2), and omicron (B.1.1.529) – hACE2
Format: binding, SARS-CoV-2, human
Conditions: read-out: IC50 in all assays with mutant spike proteins

Q: How did the IC50 turn out when `O=C(Nc1ccc(-c2ccc(C(=O)Nc3cccc4cc(S(=O)(=O)O)ccc34)cc2)cc1)c1ccc([N+](=O)[O-])cc1` [DRI-C23041] was run?
A: < 3000 nM

Q: How did the IC50 turn out when `O=C(Nc1ccc(-c2ccc(C(=O)Nc3cccc4c(S(=O)(=O)O)cccc34)cc2)cc1)c1ccc([N+](=O)[O-])cc1` [DRI-C24041] was run?
A: < 3000 nM

Q: Which IC50 does the source give for `O=S(=O)(O)c1ccc(/N=N/c2c(O)ccc3cc(S(=O)(=O)O)ccc23)cc1` [Sunset yellow, sunset yellow FCF] here?
A: > 500000 nM
